Experimental data as given in US20240252677A1, “ONE-COMPONENT DELIVERY SYSTEM FOR NUCLEIC ACIDS” (The Trustees of the University of Pennsylvania, priority 2021, published 2024).

Tests used:
HEK293T cells = test: In vitro Luc-mRNA transfection, luciferase luminescence expression in HEK293T cells; assay type: cell-based, human; design: unit not given here; details: HEK293T cells, Luc-mRNA 125 ng/well, n=3
Protocol: In Vitro Transfection Activity of DNPs in Human Embrionic Kidney (HEK) 293T Cells: HEK293T cells were seeded into 96-well plates (20,000 cells/well/200 μL) and cultured for 24 h at 37° C. in 5% CO2 complete cell culture media. Screening experiments were performed with nonoptimized DNPs containing naked nucleoside-modified mRNA (Karikó, et al., Immunity 2005, 23, 165-175; Pardi, et al., Methods Mol. Biol. 2013, 969, 29-42), of molar mass 664,341 encoding firefly luciferase (mRNA-Luc). A constant concentration of mRNA-Luc of 125 ng/well was used. The transIT (TransIT-mRNA transfection Kit from Mirus Bio) and MC3-based LNPs (MC3: DLin-MC3-DMA, which is the FDA approved LNP for mRNA delivery) were used as positive controls for cell transfection at a concentration of mRNA-Luc of 125 ng/well, identical to that of the tested DNPs. Subsequently cells were cultured for 24 h, the medium was aspirated under reduced pressure by a glass pipette and cells were lysed with 30 μL/well of cell culture lysis reagent (Promega). The luminescence intensity corresponding to the luciferase protein expressed was characterized and analyzed.
In vitro mRNA Delivery: Human embryonic kidney (HEK) 293T cells (American Type Culture Collection) were cultured in Dulbecco's modified Eagle's medium (DMEM) supplemented with 10% inactivated fetal bovine serum (FBS) (Gemini Bio-Products), 2 mM L-glutamine and 100 U/mL penicillin/streptomycin (Life Technologies) (complete medium). For in vitro screening experiments, HEK293T cells were seeded into 96-well plates (20,000 cells/well/200 μL) and cultured for 24 h in at 37° C. and 5% CO2 in complete media. Cell were transfected with IAJDs with encapsulated naked nucleoside-modified mRNA encoding firefly luciferase (mRNA-Luc) with fixed concentration of mRNA-Luc, 125 ng per well. The transIT (TransIT®-mRNA Transfection Kit, Mirus Bio) was used as a positive control for cell transfection, accordingly per manufacturer protocol and added to cells at the concentration of mRNA-Luc, 125 ng per well, the same as for tested particles. Cells were further cultured for 24 h, then medium was aspirated, and cells were lysed with 30 μL/well of cell culture lysis reagent (Promega). For the characterization of luminescence intensity, 2.5 μL of the lysed cells was mixed with 10 μL of luciferase assay substrate and luminescence was analyzed using a MiniLumat LB 9506 luminometer (Berthold/EG&G; Wallac).
Luminescence characterization for in vitro transfection experiments was performed by determining the luminescence intensity for in vitro Luc-mRNA transfection experiments using a MiniLumat LB 9506 luminometer (Berthold/EG&G; Wallac).
For in vitro Luc-mRNA transfection screening experiments, human embryonic kidney 293 cells (HEK 293) were seeded into 96-well plates (20,000 cells/well/200 μL) and cultured for 18-20 hours at 37° C., 5% CO2 in complete Dulbecco's modified Eagle's medium (DMEM) supplemented with 2 mM L-glutamine (Life Technologies), 100 U/mL penicillin/streptomycin (Invitrogen) and 10% fetal bovine serum (FBS, Gemini Bio-Products). Cells were transfected with DNPs with encapsulated naked nucleoside-modified mRNA encoding firefly luciferase (Luc-mRNA) at constant concentration of Luc-mRNA, 125 ng per well. Luc-mRNA complexed with TransIT (TransIT®-mRNA Transfection Kit, Mirus Bio) or encapsulated in FDA approved MC3-based LNPs were used as positive controls for cell transfection, at the concentration of Luc-mRNA of 125 ng per well, the same as for tested DNPs. After transfection cells were further cultured at 37° C., 5% CO2 for 18-20 hours, then medium was aspirated and cells were lysed with luciferase cell culture lysis reagent (30 μL/well) (Promega, Madison, WI). […]

spleen = test: In vivo mRNA delivery, IVIS imaging of organs: spleen; design: species or system mice; key to Organs with luminescence: spleen: strong: Strong meant the luminescence intensity in that organ was relatively high, compared to other organs; weak: Weak meant the luminescence intensity in that organ was relatively low, compared to other organs; details: for Organs with luminescence: spleen (weak/strong): Table 14; for Organs with luminescence: spleen: Table 17, mice, IVIS, 4-6 h after injection, intensity relative to other organs
Protocol: The exposure time was 1 min.
Tissue luminescence signal was measured on the IVIS imaging system using an exposure time of 60 seconds using medium binning (binning=8) to ensure that the signal obtained was within operative detection range. […] Bioluminescence imaging was performed as described above.
Tissue luminescence signal was measured on the IVIS imaging system using a certain exposure time (60, 30 or 15 seconds) and medium binning (binning=8) to ensure that the signal obtained was within operative detection range.

SMILES | Luminescence (HEK293T cells) | Organs with luminescence: spleen (weak/strong) (spleen; imaging 6 h after injection) | Organs with luminescence: spleen (weak/strong) (spleen; imaging 5 h after injection) | Organs with luminescence: spleen (spleen)
CCCCCCCCOc1cc(COC(=O)CCCN2CCN(C)CC2)cc(OCCCCCCCC)c1 [IAJD 88, 3,5-Bis(octyloxy)benzyl 4-(4-methylpiperazin-1-yl)butanoate] | 17 | spleen (strong) | – | –
CCCCCCCCOc1cc(COC(=O)CCCN2CCN(CCO)CC2)cc(OCCCCCCCC)c1 [IAJD 89] | 55 | spleen (strong) | – | –
CCCCCCCCCCOc1cc(COC(=O)CCCN2CCN(CCO)CC2)cc(OCCCCCCCCCC)c1 [IAJD 91, 3,5-Bis(decyloxy)benzyl 4-(4-(2-hydroxyethyl)piperazin-1-yl)butanoate] | 65,255 | spleen (strong) | – | –
CCCCC(CC)COC(=O)CCCCOc1cc(COC(=O)CCCN2CCN(CCO)CC2)cc(OCCCCC(=O)OCC(CC)CCCC)c1 (centres unmarked) [IAJD 95] | 153,564 | spleen (strong) | – | –
CCCCC(CC)COc1cc(COC(=O)CCCN2CCN(C)CC2)cc(OCC(CC)CCCC)c1OCC(CC)CCCC (centres unmarked) [IAJD 96, 3,4,5-Tris((2-ethylhexyl)oxy)benzyl 4-(4-methylpiperazin-1-yl)butanoate] | 22,799 | – | spleen (strong) | –
CCCCC(CC)COc1cc(COC(=O)CCCN2CCN(CCO)CC2)cc(OCC(CC)CCCC)c1OCC(CC)CCCC (centres unmarked) [IAJD 97, 3,4,5-Tris((2-ethylhexyl)oxy)benzyl 4-(4-(2-hydroxyethyl)piperazin-1-yl)butanoate] | 342,016 | – | spleen (strong) | –
CCCCCCCCCCCCCCCCCCOc1cc(COC(=O)CCCN2CCN(C)CC2)cc(OCCCCCCCCCCCCCCCCCC)c1 [IAJD 98, 3,5-Bis(octadecyloxy)benzyl 4-(4-methylpiperazin-1-yl)butanoate] | 22,209 | spleen (strong) | – | –
CCCCCCCCCCCCCCCCCCOc1cc(COC(=O)CCCN2CCN(CCO)CC2)cc(OCCCCCCCCCCCCCCCCCC)c1 [IAJD 99, 3,5-Bis(octadecyloxy)benzyl 4-(4-(2-hydroxyethyl)piperazin-1-yl)butanoate] | 87,433 | spleen (strong) | – | –
CCCCC(CC)COc1ccc(COC(=O)CCCN2CCN(C)CC2)cc1OCC(CC)CCCC (centres unmarked) [IAJD 103, 3,4-Bis((2-ethylhexyl)oxy)benzyl 4-(4-methylpiperazin-1-yl)butanoate] | 19 | spleen (weak) | – | –
CCCCCCCCCCCCCCOc1cc(COC(=O)CCCN2CCN(C)CC2)cc(OCCCCCCCCCCC)c1 [IAJD 105, 3-(Tetradecyloxy)-5-(undecyloxy)benzyl 4-(4-methylpiperazin-1-yl)butanoate] | 85 | spleen (weak) | – | spleen (weak)
CCCCCCCCCCCCCCCCOc1cc(COC(=O)CCCN2CCN(C)CC2)cc(OCCCCCCCCCCCC)c1 [IAJD 106, 3-(Dodecyloxy)-5-(hexadecyloxy)benzyl 4-(4-methylpiperazin-1-yl)butanoate] | 309 | spleen (strong) | – | spleen (strong)
CCCCCCCCCCCCCCCCCCOc1cc(COC(=O)CCCN2CCN(C)CC2)cc(OCCCCCCCCCCCC)c1 [IAJD 107, 3-(Dodecyloxy)-5-(octadecyloxy)benzyl 4-(4-methylpiperazin-1-yl)butanoate] | 93,745 | spleen (strong) | – | spleen (strong)
CCCCCCCCCCCCCCOc1cc(CNC(=O)CCCN2CCN(C)CC2)cc(OCCCCCCCCCCCCCC)c1 [IAJD 108, N-(3,5-bis(tetradecyloxy)benzyl)-4-(4-methylpiperazin-1-yl)butanamide] | 136,424 | spleen (weak) | – | –
